Assay results taken from the kinase profiling compilation of Christmann-Franck et al. (2016).

Legend:
[1] = target: CSK (human) (UniProt P41240)
[2] = target: CSNK1D (human) (UniProt P48730)
[3] = target: DYRK3 (human) (UniProt O43781)
[4] = target: EPHB3 (human) (UniProt P54753)
[5] = target: FGFR1 (human) (UniProt P11362)
[6] = target: IGF1R (human) (UniProt P08069)
[7] = target: INSRR (human) (UniProt P14616)
[8] = target: MAPK12 (human) (UniProt P53778)
[9] = target: MAPK13 (human) (UniProt O15264)
[10] = target: MELK (human) (UniProt Q14680)
[11] = target: MKNK2 (human) (UniProt Q9HBH9)
[12] = target: MST4 (human) (UniProt Q9P289)
[13] = target: PAK6 (human) (UniProt Q9NQU5)
[14] = system: PRKAA1 or PRKAA2 (rat); details: accession and sequence are those of the human protein
[15] = target: PRKACA (human) (UniProt P17612)
[16] = target: PRKCZ (human) (UniProt Q05513)
[17] = system: ROCK2 (rat); details: accession and sequence are those of the human protein
[18] = target: RPS6KA1 KD1 KD2 (human) (UniProt Q15418)
[19] = target: SRC (human) (UniProt P12931)
[20] = target: SRPK1 (human) (UniProt Q96SB4)
[21] = target: STK3 (human) (UniProt Q13188)
[22] = target: SYK (human) (UniProt P43405)
[23] = target: TBK1 (human) (UniProt Q9UHD2)
[24] = target: CDK3 (human) (UniProt Q00526); assay: KINOMEscan competition binding; details: compound 10.0 µM
[25] = target: FLT1 (human) (UniProt P17948); assay: KINOMEscan competition binding; details: compound 10.0 µM
[26] = target: FLT3 (human) (UniProt P36888); assay: KINOMEscan competition binding; details: compound 10.0 µM
[27] = target: MAK (human) (UniProt P20794); assay: KINOMEscan competition binding; details: compound 10.0 µM
[28] = target: MINK1 (human) (UniProt Q8N4C8); assay: KINOMEscan competition binding; details: compound 10.0 µM
[29] = target: NLK (human) (UniProt Q9UBE8); assay: KINOMEscan competition binding; details: compound 10.0 µM
[30] = target: PAK2 (human) (UniProt Q13177); assay: KINOMEscan competition binding; details: compound 10.0 µM
[31] = target: TGFBR2 (human) (UniProt P37173); assay: KINOMEscan competition binding; details: compound 10.0 µM
[32] = target: PI4KA (human) (UniProt P42356)
[33] = target: PI4KB (human) (UniProt Q9UBF8)
[34] = target: PIK3C2A (human) (UniProt O00443)
[35] = target: PIK3C2B (human) (UniProt O00750)
[36] = target: PIK3C3 (human) (UniProt Q8NEB9)

Sequence of MAPK13 (human) (O15264 whole entry, looked up): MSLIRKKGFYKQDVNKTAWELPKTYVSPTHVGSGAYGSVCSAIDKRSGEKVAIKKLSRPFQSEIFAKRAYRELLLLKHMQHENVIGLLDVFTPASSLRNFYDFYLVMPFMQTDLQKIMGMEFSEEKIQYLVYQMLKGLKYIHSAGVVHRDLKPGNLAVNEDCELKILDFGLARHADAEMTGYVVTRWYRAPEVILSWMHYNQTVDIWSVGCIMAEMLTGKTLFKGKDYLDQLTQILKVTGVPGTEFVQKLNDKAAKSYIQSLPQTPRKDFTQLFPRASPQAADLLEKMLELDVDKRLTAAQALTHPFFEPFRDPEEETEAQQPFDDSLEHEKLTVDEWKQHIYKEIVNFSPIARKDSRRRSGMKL
Sequence of PAK6 (human) (Q9NQU5 whole entry, looked up): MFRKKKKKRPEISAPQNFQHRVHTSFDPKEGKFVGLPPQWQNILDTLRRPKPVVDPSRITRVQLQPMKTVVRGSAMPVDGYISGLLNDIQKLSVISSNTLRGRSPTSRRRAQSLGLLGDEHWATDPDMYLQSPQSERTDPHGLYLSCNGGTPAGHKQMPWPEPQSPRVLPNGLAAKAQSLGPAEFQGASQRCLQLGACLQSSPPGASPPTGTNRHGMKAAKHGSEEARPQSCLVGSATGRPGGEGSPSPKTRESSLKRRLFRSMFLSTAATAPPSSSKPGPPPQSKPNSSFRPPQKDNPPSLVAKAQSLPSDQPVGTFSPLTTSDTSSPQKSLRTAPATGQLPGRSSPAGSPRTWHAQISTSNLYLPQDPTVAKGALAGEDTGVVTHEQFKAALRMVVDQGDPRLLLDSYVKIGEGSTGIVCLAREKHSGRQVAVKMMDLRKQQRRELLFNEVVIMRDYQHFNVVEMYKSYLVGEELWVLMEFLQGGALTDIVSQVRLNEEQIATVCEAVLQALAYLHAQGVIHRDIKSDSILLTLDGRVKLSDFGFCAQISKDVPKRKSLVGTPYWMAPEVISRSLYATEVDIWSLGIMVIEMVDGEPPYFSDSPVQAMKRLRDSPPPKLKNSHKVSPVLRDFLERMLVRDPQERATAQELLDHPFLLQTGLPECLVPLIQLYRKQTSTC
Sequence of INSRR (human) (P14616 whole entry, looked up): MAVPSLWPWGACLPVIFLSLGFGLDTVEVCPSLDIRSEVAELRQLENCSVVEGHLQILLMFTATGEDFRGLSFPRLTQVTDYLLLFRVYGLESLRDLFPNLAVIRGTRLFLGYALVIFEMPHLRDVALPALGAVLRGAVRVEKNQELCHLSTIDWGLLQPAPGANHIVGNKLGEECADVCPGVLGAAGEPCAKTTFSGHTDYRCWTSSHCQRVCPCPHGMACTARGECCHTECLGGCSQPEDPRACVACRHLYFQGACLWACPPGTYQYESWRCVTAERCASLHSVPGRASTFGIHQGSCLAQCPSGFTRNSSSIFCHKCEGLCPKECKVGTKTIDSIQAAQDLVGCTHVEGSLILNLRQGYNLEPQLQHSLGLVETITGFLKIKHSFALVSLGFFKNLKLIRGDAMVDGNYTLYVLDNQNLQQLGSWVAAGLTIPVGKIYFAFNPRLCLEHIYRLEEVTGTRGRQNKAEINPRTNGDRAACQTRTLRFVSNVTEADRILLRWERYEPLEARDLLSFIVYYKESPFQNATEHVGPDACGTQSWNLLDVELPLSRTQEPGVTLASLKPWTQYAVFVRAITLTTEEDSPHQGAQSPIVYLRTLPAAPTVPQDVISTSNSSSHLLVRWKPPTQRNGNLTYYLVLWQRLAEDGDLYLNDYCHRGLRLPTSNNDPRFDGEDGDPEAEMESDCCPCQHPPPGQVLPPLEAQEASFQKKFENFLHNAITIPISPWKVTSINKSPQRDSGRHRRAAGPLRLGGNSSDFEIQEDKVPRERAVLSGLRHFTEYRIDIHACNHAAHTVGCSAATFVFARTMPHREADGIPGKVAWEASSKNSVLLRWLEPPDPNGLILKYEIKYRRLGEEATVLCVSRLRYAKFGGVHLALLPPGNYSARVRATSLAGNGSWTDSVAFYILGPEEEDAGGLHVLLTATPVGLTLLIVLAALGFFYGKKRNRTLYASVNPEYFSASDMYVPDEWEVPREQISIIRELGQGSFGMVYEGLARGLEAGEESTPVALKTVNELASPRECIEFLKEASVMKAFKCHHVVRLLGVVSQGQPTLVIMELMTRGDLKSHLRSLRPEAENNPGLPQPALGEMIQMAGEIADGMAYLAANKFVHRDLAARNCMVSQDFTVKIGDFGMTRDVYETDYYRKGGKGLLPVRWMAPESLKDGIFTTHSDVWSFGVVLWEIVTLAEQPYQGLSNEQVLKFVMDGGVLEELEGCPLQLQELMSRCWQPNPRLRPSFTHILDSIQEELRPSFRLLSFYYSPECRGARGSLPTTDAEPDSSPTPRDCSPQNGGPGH
Sequence of STK3 (human) (Q13188 whole entry, looked up): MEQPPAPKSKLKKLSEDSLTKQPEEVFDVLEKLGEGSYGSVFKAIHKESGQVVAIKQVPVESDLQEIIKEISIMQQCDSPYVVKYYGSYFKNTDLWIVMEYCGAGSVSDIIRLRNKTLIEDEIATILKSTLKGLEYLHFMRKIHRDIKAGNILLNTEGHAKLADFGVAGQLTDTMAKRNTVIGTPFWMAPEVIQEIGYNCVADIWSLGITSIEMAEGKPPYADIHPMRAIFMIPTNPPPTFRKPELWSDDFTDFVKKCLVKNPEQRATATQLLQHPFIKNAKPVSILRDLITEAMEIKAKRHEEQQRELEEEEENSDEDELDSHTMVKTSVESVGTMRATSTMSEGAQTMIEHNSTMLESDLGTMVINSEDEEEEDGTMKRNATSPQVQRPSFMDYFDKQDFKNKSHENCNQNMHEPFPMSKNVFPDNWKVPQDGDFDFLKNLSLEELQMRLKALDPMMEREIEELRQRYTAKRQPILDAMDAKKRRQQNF
Sequence of CSNK1D (human) (P48730 whole entry, looked up): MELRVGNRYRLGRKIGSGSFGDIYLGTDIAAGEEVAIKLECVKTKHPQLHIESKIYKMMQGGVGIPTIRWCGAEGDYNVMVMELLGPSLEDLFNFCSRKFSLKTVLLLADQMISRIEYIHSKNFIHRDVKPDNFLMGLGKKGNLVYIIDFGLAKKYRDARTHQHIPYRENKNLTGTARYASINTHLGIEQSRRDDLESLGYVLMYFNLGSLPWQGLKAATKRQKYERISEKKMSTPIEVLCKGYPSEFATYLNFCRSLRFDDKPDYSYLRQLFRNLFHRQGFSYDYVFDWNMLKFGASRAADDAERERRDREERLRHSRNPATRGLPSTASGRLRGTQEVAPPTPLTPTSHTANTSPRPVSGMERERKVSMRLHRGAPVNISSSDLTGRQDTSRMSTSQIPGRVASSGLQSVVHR
Sequence of CSK (human) (P41240 whole entry, looked up): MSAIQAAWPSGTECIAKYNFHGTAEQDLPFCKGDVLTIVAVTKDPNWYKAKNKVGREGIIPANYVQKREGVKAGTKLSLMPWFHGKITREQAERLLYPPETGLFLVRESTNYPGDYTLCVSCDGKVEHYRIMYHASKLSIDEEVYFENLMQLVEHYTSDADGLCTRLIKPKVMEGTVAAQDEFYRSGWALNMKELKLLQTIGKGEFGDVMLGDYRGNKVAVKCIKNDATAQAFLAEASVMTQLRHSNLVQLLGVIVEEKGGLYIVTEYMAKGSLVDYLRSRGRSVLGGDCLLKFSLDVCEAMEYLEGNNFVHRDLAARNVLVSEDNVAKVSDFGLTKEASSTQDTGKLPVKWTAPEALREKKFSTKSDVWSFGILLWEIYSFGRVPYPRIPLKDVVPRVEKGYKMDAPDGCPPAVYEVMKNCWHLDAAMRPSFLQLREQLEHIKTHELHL
Sequence of MST4 (human) (Q9P289 whole entry, looked up): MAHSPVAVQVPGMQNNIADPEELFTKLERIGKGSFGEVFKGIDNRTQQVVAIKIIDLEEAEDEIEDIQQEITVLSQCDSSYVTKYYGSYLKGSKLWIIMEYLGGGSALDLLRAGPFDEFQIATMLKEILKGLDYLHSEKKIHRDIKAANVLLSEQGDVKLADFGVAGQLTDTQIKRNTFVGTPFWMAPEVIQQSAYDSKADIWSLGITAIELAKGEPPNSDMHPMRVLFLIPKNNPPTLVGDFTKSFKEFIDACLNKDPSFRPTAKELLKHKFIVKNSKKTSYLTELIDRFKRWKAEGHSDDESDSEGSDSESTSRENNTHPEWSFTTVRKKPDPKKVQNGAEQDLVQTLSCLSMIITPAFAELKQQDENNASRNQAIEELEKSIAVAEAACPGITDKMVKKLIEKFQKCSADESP
Sequence of MKNK2 (human) (Q9HBH9 whole entry, looked up): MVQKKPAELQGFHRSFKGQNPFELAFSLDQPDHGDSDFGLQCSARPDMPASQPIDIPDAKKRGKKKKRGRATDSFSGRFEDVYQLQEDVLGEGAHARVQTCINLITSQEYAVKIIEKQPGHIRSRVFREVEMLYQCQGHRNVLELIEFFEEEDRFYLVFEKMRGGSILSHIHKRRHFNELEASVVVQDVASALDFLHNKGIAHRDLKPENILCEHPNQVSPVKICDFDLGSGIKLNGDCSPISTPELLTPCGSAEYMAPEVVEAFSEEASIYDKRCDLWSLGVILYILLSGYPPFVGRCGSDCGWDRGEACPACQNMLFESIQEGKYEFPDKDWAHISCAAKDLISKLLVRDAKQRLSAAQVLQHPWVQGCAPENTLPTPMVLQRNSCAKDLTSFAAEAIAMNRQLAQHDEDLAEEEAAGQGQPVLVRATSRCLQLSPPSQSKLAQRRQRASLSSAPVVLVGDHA
Sequence of MAPK12 (human) (P53778 whole entry, looked up): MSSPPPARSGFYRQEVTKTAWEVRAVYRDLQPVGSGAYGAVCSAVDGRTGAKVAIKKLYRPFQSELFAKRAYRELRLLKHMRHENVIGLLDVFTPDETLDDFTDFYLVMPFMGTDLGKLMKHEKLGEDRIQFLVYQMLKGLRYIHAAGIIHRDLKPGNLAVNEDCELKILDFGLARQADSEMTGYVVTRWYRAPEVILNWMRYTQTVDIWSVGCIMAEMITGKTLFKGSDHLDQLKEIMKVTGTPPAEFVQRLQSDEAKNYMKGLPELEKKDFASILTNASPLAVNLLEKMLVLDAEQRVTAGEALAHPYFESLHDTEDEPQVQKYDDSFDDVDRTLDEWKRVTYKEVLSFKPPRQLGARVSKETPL

For `COC(=O)Nc1ccc(-c2nc(N3CCOCC3)c3cnn(C4CCN(C(=O)OC)CC4)c3n2)cc1`, the per cent of control ([1]; compound 1.0 µM) was 113%, the per cent of control ([1]; compound 10.0 µM) was 106% and the per cent of control ([2]; compound 1.0 µM) was 90%. The per cent of control ([2]; compound 10.0 µM) was 92%, the per cent of control ([3]; compound 1.0 µM) was 84% and the per cent of control ([3]; compound 10.0 µM) was 77%. For the same molecule, the per cent of control ([4]; compound 1.0 µM) was 100%, the per cent of control ([4]; compound 10.0 µM) was 116% and the per cent of control ([5]; compound 1.0 µM) was 95%. For the same molecule, the per cent of control ([5]; compound 10.0 µM) was 109%, the per cent of control ([6]; compound 1.0 µM) was 108% and the per cent of control ([6]; compound 10.0 µM) was 101%. The per cent of control ([7]; compound 1.0 µM) was 88%, the per cent of control ([7]; compound 10.0 µM) was 99% and the per cent of control ([8]; compound 1.0 µM) was 55%. For the same molecule, the per cent of control ([8]; compound 10.0 µM) was 17%, the per cent of control ([9]; compound 1.0 µM) was 14% and the per cent of control ([9]; compound 10.0 µM) was 10%. The per cent of control ([10]; compound 1.0 µM) was 87%, the per cent of control ([10]; compound 10.0 µM) was 75% and the per cent of control ([11]; compound 1.0 µM) was 115%. The per cent of control ([11]; compound 10.0 µM) was 93%, the per cent of control ([12]; compound 1.0 µM) was 88% and the per cent of control ([12]; compound 10.0 µM) was 82%. It also gave a per cent of control ([13]; compound 1.0 µM) of 99%, a per cent of control ([13]; compound 10.0 µM) of 90% and a per cent of control ([14]; compound 1.0 µM) of 78%. The per cent of control ([14]; compound 10.0 µM) was 82%, the per cent of control ([15]; compound 1.0 µM) was 103% and the per cent of control ([15]; compound 10.0 µM) was 100%. For the same molecule, the per cent of control ([16]; compound 1.0 µM) was 93%, the per cent of control ([16]; compound 10.0 µM) was 106% and the per cent of control ([17]; compound 1.0 µM) was 92%. It also gave a per cent of control ([17]; compound 10.0 µM) of 97%, a per cent of control ([18]; compound 1.0 µM) of 100% and a per cent of control ([18]; compound 10.0 µM) of 102%. It also gave a per cent of control ([19]; compound 1.0 µM) of 90%, a per cent of control ([19]; compound 10.0 µM) of 67% and a per cent of control ([20]; compound 1.0 µM) of 109%. For the same molecule, the per cent of control ([20]; compound 10.0 µM) was 102%, the per cent of control ([21]; compound 1.0 µM) was 85% and the per cent of control ([21]; compound 10.0 µM) was 96%. The per cent of control ([22]; compound 1.0 µM) was 124%, the per cent of control ([22]; compound 10.0 µM) was 127% and the per cent of control ([23]; compound 1.0 µM) was 96%. It also gave a per cent of control ([23]; compound 10.0 µM) of 94%, a per cent of control [24] of 100% and a kinase still bound, per cent of control [25] of 100%. The kinase still bound, per cent of control [26] was 100%, the kinase still bound, per cent of control [27] was 100% and the kinase still bound, per cent of control [28] was 100%. The kinase still bound, per cent of control [29] was 99%, the kinase still bound, per cent of control [30] was 91% and the kinase still bound, per cent of control [31] was 78%. For the same molecule, the IC50 [32] was greater than 3.33 µM, the IC50 [33] was greater than 10 µM and the IC50 [34] was greater than 10 µM. The IC50 [35] was 5.15 µM and the IC50 [36] was greater than 10 µM.
